# pIC50: −log10 of the molar value. “And” between values parts separate entries of the source, which are not always exact repeats. Equal values may be shown once. Read-outs that look alike come from different tables or passages of the source.
# How the values were obtained:
# cPLA2 [1] = target: T1, cPLA2 (Homo sapiens, UniProt P47712); experiment: Soluble substrate assay (LysoPC); format: biochemical; conditions: for IC50: NA = inhibitory activity not detected, read-out: IC50 (μM) Lyso PC
# T1 sequence (P47712 1-749): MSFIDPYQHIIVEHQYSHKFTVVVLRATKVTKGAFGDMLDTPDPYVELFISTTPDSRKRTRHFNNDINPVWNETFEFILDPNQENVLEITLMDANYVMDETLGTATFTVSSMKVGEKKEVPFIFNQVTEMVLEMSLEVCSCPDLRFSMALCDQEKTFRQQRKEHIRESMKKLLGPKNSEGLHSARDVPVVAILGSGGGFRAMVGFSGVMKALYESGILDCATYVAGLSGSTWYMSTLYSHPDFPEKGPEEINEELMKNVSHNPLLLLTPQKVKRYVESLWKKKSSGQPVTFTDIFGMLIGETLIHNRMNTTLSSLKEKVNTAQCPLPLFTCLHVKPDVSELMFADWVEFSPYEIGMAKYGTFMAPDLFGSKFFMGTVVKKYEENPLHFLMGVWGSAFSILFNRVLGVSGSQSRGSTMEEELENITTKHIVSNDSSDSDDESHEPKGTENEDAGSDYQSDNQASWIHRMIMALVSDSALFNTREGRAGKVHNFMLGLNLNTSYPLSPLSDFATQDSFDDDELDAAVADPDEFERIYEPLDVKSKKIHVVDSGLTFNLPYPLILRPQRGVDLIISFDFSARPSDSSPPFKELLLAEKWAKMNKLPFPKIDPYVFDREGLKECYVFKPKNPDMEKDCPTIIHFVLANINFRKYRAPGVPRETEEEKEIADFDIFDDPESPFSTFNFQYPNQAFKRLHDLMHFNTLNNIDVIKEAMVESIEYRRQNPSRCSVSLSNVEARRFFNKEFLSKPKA
# Procedure: (b) Soluble Substrate Assay (LysoPC)
# (§1) The lipid was resuspended by vortexing 80 mM Hepes pH 7.5, 1 mM EDTA (1.2×final concentration). A typical assay consisted of lipid suspension (85 μl) to which was added consecutively the inhibitor (5 μl in DMSO) and cPLA2, 200 ng in 80 mM Hepes pH 7.5, 2 mM DTT and […]. This assay was conducted by either the manual assay or automated assay protocol described below.
# cPLA2 [2] = target: T1, cPLA2; experiment: Coumarine assay (7-hydroxycoumarinyl 6-heptenoate hydrolysis); format: biochemical; conditions: for IC50: 60 μM 7-hydroxycoumarinyl 6-heptenoate, read-out: IC50 (μM) Coumarine
# Procedure: (§2) 7-hydroxycoumarinyl 6-heptenoate was used as a monomeric substrate for cPLA2 as reported previously (Huang, Z. et al., 1994, Analytical Biochemistry 222, 110-115). Inhibitors were mixed with 200 μL assay buffer (80 mM Hepes, pH 7.5, 1 mM EDTA) containing 60 μM 7-hydroxycoumarinyl 6-heptenoate. The reaction was initiated by adding 4 μg cPLA2 in 50 μL assay buffer. Hydrolysis of the 7-hydroxycoumarinyl 6-heptenoate ester was monitored in a fluorometer by exciting at 360 nm and monitoring emission at 460 nm. Enzyme activity is proportional to the increasein emission at 460 nm per minute. In the presence of a cPLA2 inhibitor, the rate of increase is less.
# [3] = system: carrageenan-induced footpad edema; experiment: Rat carrageenan-induced footpad edema test; format: in vivo; conditions: iv, read-out: % inhibition of rat carrageenan-induced footpad edema
# Procedure: Compounds of the present invention were also tested for in vivo activity in a rat paw edema test according to the procedure described in Example 89.
# Rat Carrageenan-Induced Footpad Edema Test
# Each compound was suspended in 0.3 ml absolute ethanol, 0.1 ml Tween-80 and 2.0 ml Dulbecco's PBS (without calcium or magnesium). To this mixture, 0.1 ml 1N NaOH was added. After solution was complete, additional amounts of PBS were added to adjust the concentration to 1 mg/ml. All comounds remained in solution. Compounds were administered i.v. in a volumne of 5 ml/kg to male Sprague Dawley rats at the same time that edema was induced by injection of 0.05 ml of 1% Type IV carrageenan into the hind footpad. Footpad volume was measured before dosing with compound and 3 hours after dosing with carageenan.
# cPLA2 [4] = target: T1, cPLA2; experiment: Activity assay of Example 136 (Table VIII; sub-assay not stated); format: biochemical; conditions: for pIC50: concentration paired with 50 percent inhibition, read-out: CONCENTRATION (micromolar) @ PERCENT INHIBITION 50
# Procedure: Activity data for the compounds of Examples 88-135 are reported in Table VIII (assay described in Example 136).
# 1-palmitoyl-2-V^14C] arachidonyl phosphotidylcholine (58 mCi/mmol) (final concentration 6 μM) and 1,2-dioleyolglycerol (final concentration 3 μM) were mixed and dried under a stream of nitrogen. To the lipids was added 50 mM Hepes pH 7.5 (2×final concentration of lipids) and the suspension was sonicated for 3 min. at 4° C. To the suspension was added 50 mM Hepes pH 7.5, 300 mM NaCl, 2 mM DTT, 2 mM CaCl2 and 2 mg/ml bovine serum albumin (BSA) (Sigma A7511) (1.2×final concentration of lipids). A typical assay consisted of the lipid mixture (85 μl) to which was added consecutively, the inhibitor (5 μl in DMSO) and cPLA2, 10 ng for an automated system or 1 ng for a manual assay, in 10 μl of the BSA buffer. This assay was conducted by either the manual assay or automated assay protocol described below.
# as §1, with “1-[^14C]-palmitoyl-2-hydroxyphosphotidyl-choline (57 mCi/mmol) (final concentration 4.4 μM) was dried under a stream of nitrogen. The” for “The”
# RBL-2H3 cells were routinely cultured as 37° C. in a 5% CO2 atmosphere in minimal essential medium containing nonessential amino acids and 12% fetal calf serum. The day before the experiment, cells were seeded into spinner flasks at 3×10^5 cells/ml and 100 ng/ml DNP specific-IgE was added. After 20 hrs, the cells were harvested by centrifugation and washed once in serum-free minimal essential media, and resuspended to 2×10^6 cells/ml in serum free media. The cells were then preincubated with either inhibitor in DMSO (1% v/v) or DMSO (1% v/v) for 15 min at 37° C. followed by stimulation with DNP-BSA (300 ng/ml). After 6 min, the cells were removed by centrifugation, and the supernatant was assayed for PGD2 content in accordance with known methods.
# as §2
# [5] = 1 mg/ml, 5 ml/kg, male Sprague Dawley rats, footpad volume 3 hours after carrageenan
compound,measurement,setting,value
O=C(O)c1cccc(NC(=O)c2cc3cc(OCc4ccccc4)ccc3n2Cc2ccc(COc3cc(C(F)(F)F)cc(C(F)(F)F)c3)cc2)c1 [Example 8],pIC50,cPLA2 [1],6.96
same,pIC50,cPLA2 [2],5.42
same,"inhibition in vivo at 1000 µg/mL, 5 mg/kg",[3]; 3 h,29%
O=C(O)c1cc(NC(=O)c2cc3cc(OCc4ccccc4)ccc3n2Cc2ccc(C(F)(F)F)cc2C(F)(F)F)ccc1Oc1ccc(Cl)nc1 [Example 10],pIC50,cPLA2 [1],6.48
same,pIC50,cPLA2 [2],4.55
same,"inhibition in vivo at 1000 µg/mL, 5 mg/kg",[3]; 3 h,8.9%
"CCC(C)(C)c1ccc(OCC(=O)N2c3ccc(OCc4ccccc4)cc3CC2CSCC(=O)Nc2cccc(C(=O)O)c2)c(C(C)(C)CC)c1 (stereo not shown) [Example 17, 3-(2-(-5-Benzyloxy-1-(2,4-bis(1,1-dimethy)propyl)phenoxyacetyl)indolinyl)methylthioacetamidobenzoic Acid]",IC50,cPLA2 [1],0.32 µM
same,IC50,cPLA2 [2],6 µM
same,"inhibition in vivo at 1000 µg/mL, 5 mg/kg",[3]; [5],29.3%
O=C(O)c1ccccc1SCC1Cc2cc(OCc3ccccc3)ccc2N1Cc1ccc2ccccc2c1 (stereo not shown) [Example 76],IC50,cPLA2 [2],4.5 µM
same,"inhibition in vivo at 1000 µg/mL, 5 mg/kg",[3]; [5],8.2%
O=C(O)c1ccccc1SCC1Cc2cc(OCc3ccccc3)ccc2N1Cc1ccc(COc2cc(C(F)(F)F)cc(C(F)(F)F)c2)cc1 (stereo not shown) [Example 77],IC50,cPLA2 [2],2.5 µM
same,"inhibition in vivo at 1000 µg/mL, 5 mg/kg",[3]; [5],13%
"CS(=O)(=O)NC(=O)C1Cc2ccccc2N1Cc1ccc(C(F)(F)F)cc1C(F)(F)F (stereo not shown) [Example 84, N-Methylsulfonyl-2-(1-(2,4-bis(trifluoromethyl)benzyl)indolinyl)carboxamide]",IC50,cPLA2 [1],23 µM
same,IC50,cPLA2 [2],> 50 µM
O=C(NS(=O)(=O)c1ccccc1)C1Cc2ccccc2N1Cc1ccc(C(F)(F)F)cc1C(F)(F)F (stereo not shown) [Example 85],IC50,cPLA2 [1],21 µM
same,IC50,cPLA2 [2],> 50 µM
"O=C(O)c1ccc(CN2C(=O)S/C(=C/c3cc4cc(OCc5ccccc5)ccc4n3Cc3ccc(COc4cc(C(F)(F)F)cc(C(F)(F)F)c4)cc3)C2=O)cc1 [Example 88, 4-[(5-{(E)[5-(Benzyloxy)-1-(4-{[3,5-bis(trifluoromethyl)phenoxyl]methyl}benzyl)-1H-indol-2-yl]methylidene}-2,4-dioxo-1,3-thiazolan-3-yl)methyl]benzoic Acid]",pIC50,cPLA2 [4],5.52
"O=C1NC(=O)/C(=C\c2cc3cc(OCc4ccccc4)ccc3n2Cc2ccc(Cc3ccccc3)cc2)S1 [Example 93, 5-{(E)-[1-(4-Benzylbenzyl)-5-(benzyloxy)-1H-indol-2-yl]methylidene}-1,3-thiazolane-2,4-dione]",PERCENT INHIBITION @ CONCENTRATION 12.5 micromolar,cPLA2 [4]; 12.5 micromolar,55%
same,pIC50,cPLA2 [4],4.90
"O=C(O)CN1C(=O)S/C(=C/c2cc3cc(OCc4ccccc4)ccc3n2Cc2ccc(COc3cc(C(F)(F)F)cc(C(F)(F)F)c3)cc2)C1=O [Example 96, 2-(5-{(E)-[5-(Benzyloxy)-1-(4-{[3,5-bis(trifluoromethyl)phenoxy]methyl}benzyl)-1H-indol-2-yl]methylidene}-2,4-dioxo-1,3-thiazolan-3-yl)acetic Acid]",pIC50,cPLA2 [4],5.30
"O=C(O)c1ccc(CN2C(=O)S/C(=C/c3cc4cc(OCc5ccccc5)ccc4n3Cc3ccc(Cl)cc3)C2=O)cc1 [Example 97, 4-[(5-{(E)-[5-(Benzyloxy)-1-(4-chlorobenzyl)-1H-indol-2yl]methylidene}2,4-dioxo-1,3-thiazolan-3-yl)methyl]benzoic Acid]",pIC50,cPLA2 [4],5.35
"O=C1NC(=S)S/C1=C/c1cc2cc(OCc3ccccc3)ccc2n1Cc1ccc(C(F)(F)F)cc1C(F)(F)F [Example 101, 5-((E)-{5-(Benzyloxy)-1-[2,4-bis(trifluoromethyl)benzyl]-1H-indol-2-yl}methylidene)-2-thioxo-1,3-thiazolan-4-one]",pIC50,cPLA2 [4],5.00
"O=C(O)c1ccc(CN2C(=O)/C(=C\c3cc4cc(OCc5ccccc5)ccc4n3Cc3ccc(C(F)(F)F)cc3C(F)(F)F)SC2=S)cc1 [Example 107, 4-{[5-((E)-{5-(Benzyloxy)-1-[2,4-bis(trifluoromethyl)benzyl]-1H-indol-2-yl}methylidene)-4-oxo-2-thioxo-1,3-thiazolan-3-yl]methyl}benzoic Acid]",pIC50,cPLA2 [4],5.42
"O=C(O)c1cc2cc(-c3cc4ccccc4o3)ccc2n1Cc1ccccc1 [Example 110, 5-(1-Benzofuran-2-yl)-1-benzyl-1H-indole-2-carboxylic Acid]",pIC50,cPLA2 [4],4.30
"O=C(O)c1cc2cc(-c3ccc(F)cc3)ccc2n1Cc1ccccc1 [Example 111, 1-Benzyl-5-(4-fluorophenyl)-1H-indole-2-carboxylic Acid]",pIC50,cPLA2 [4],4.89
"COc1cccc(-c2ccc3c(c2)cc(C(=O)O)n3Cc2ccccc2)c1 [Example 112, 1-Benzyl-5-(3-methoxyphenyl)-1H-indole-2-carboxylic Acid]",PERCENT INHIBITION @ CONCENTRATION 25 micromolar,cPLA2 [4]; 25 micromolar,32%
same,PERCENT INHIBITION @ CONCENTRATION 50 micromolar,cPLA2 [4],46%
"O=C(O)c1cc2cc(-c3ccccc3)ccc2n1Cc1ccccc1 [Example 113, 1-Benzyl-5-phenyl-1H-indole-2-carboxylic Acid]",pIC50,cPLA2 [4],3.77
"O=C(O)c1cc(NC(=O)c2cc3cc(OCc4ccccc4)ccc3n2Cc2ccccc2)cc(C(=O)O)c1 [Example 123, 5-({[1-Benzyl-5-(benzyloxy)-1H-indol-2-yl]carbonyl}amino)isophthalic Acid]",PERCENT INHIBITION @ CONCENTRATION 50 micromolar,cPLA2 [4],31% and 25%
O=C(O)/C=C/c1cc2cc(OCc3ccccc3)ccc2n1Cc1ccc(C(F)(F)F)cc1C(F)(F)F [Example 125],pIC50,cPLA2 [4],4.64
CC(=O)c1c(CSCC(=O)O)n(Cc2ccc(C(=O)c3nc4ccccc4s3)cc2)c2ccc(OCc3ccccc3)cc12 [Example 133],pIC50,cPLA2 [4],5.07
CC(=O)c1c(CSc2ccccc2C(=O)O)n(Cc2ccc(C(=O)c3nc4ccccc4s3)cc2)c2ccc(OCc3ccccc3)cc12 [Example 134],pIC50,cPLA2 [4],5.46
CC(=O)c1c(COc2ccc(C(=O)O)cc2)n(Cc2ccc(C(=O)c3nc4ccccc4s3)cc2)c2ccc(OCc3ccccc3)cc12 [Example 135],pIC50,cPLA2 [4],5.05
